How the values were obtained:
OCI-Ly8 = assay: BFA / conA treatment of CIK effector cells, lysis of OCI-Ly8; assay type: cell-based; conditions: day 21 CIK effector cells pre-incubated 2 hours with 1 μM BFA or 0.1 μM conA
Protocol: (§1) Brefeldin A (BFA) blocks the transport of FasL from intracellular stores to the cell surface (Lippincott-Schwartz et al. (1989) Cell 56:801; Lippincott-Schwartz et al. (1990) Cell 60:821; and Orci et al. (1991) Cell 64:1183). […] BFA was dissolved at 100 μg/ml in 70% ethanol and used fresh or stored up to 4 weeks at −20° C. Prior to cytotoxicity assays, the cells were rinsed three times with PBS and BFA-free fresh medium was added.
(§2) Concanamycin A (conA) depletes perforin contained in cytotoxic T-cell granules (Kataoka et al. (1996) J. Immunol. 156:3678; Ohminami et al. (1999) Blood 93:925). 15 ConA-treated effector cells were used in cytotoxicity assays to approximate the fractional contribution of the perforin/granzyme pathway to the total CIK cell mediated cytotoxicity.
(§3) Louis, Mo.). The cells were then incubated for 2 hours at 37° C. in a humidified atmosphere of 5% CO2.
(§4) BFA treatment of effector cells and the associated block of FasL transport reduced CIK lysis of the tumor target OCI-Ly8 by 33%, but had no effect on the lysis of EC targets (FIG. 4).

EC targets = assay: BFA / conA treatment of CIK effector cells, lysis of EC targets; assay type: cell-based, human; conditions: day 21 CIK effector cells pre-incubated 2 hours with 1 μM BFA or 0.1 μM conA
Protocol: as §1, §2, §3, §4

EC = assay: BFA pre-treatment of CIK targets, 51Cr release assay, EC; assay type: cell-based; conditions: targets pre-treated with 10 μM BFA, 20:1 E:T ratio
Protocol: (§5) CIK targets were treated with BFA and/or tunicamycin (TM). […] This resistance is sustained after BFA is removed from the media.

OCI-Ly8 tumor targets = assay: BFA / TM pre-treatment of CIK targets, 51Cr release assay, OCI-Ly8 tumor targets; assay type: cell-based; conditions: 20:1 E:T ratio
Protocol: as §5

[1] = system: lymphoblastoid target AMK; assay: BFA / TM pre-treatment of CIK targets, 51Cr release assay, lymphoblastoid target AMK; assay type: cell-based; conditions: target pre-treatment (TM 22 hr), 20:1 E:T ratio
Protocol: as §5

| Compound | reduction of CIK lysis of OCI-Ly8 (OCI-Ly8) [%] | effect on CIK lysis of EC targets (EC targets) | protection of EC from CIK mediated lysis (EC) | effect of target pre-treatment on CIK killing of tumor targets (OCI-Ly8 tumor targets) | effect of target pre-treatment on CIK killing of lymphoblastoid targets [1] |
| --- | --- | --- | --- | --- | --- |
| C[C@H]1CCC/C=C/[C@@H]2C[C@H](O)C[C@H]2[C@H](O)/C=C/C(=O)O1 [BFA, Brefeldin A] | 33 | no effect | complete protection | did not reduce killing | did not reduce killing |
| tunicamycin [TM] |  |  |  | Neither TM or TM and BFA together altered CIK mediated lysis | rendered susceptible |
| C/C=C/[C@H]1O[C@@](O)([C@@H](C)[C@H](O)[C@H](C)[C@H]2OC(=O)/C(OC)=C/C(C)=C/[C@@H](C)[C@@H](O)[C@@H](CC)[C@@H](O)[C@H](C)C/C(C)=C/C=C/[C@@H]2OC)C[C@@H](O[C@H]2C[C@@H](O)[C@H](OC(N)=O)[C@@H](C)O2)[C@@H]1C [Con A, Concanamycin A] | 66 | completely abolished EC lysis |  |  |  |

Reference: US20080248002A1, “ANTI-ANGIOGENIC CELLULAR AGENT FOR CANCER THERAPY” (priority 1999, published 2008)
